Reference: PubChem BioAssay (NCI)
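Growth conditions: 96-well plates. Treatment: test compound, 48 hours, 5 concentrations. Analysis: linear interpolation between bracketing concentrations; unreached endpoints set to highest concentration. GI50 = concentration required for 50% inhibition of growth. TGI: concentration producing complete growth inhibition.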

Assays:
Experiment in all cases: DTP human tumour cell line panel, 48 h
[1] = system: 786-0 renal
[2] = system: A498 renal
[3] = system: A549 NSCLC
[4] = system: ACHN renal
[5] = system: BT-549 breast
[6] = system: CAKI-1 renal
[7] = system: CCRF-CEM leukemia
[8] = system: COLO 205 colon
[9] = system: DU-145 prostate
[10] = system: EKVX NSCLC
[11] = system: HCC-2998 colon
[12] = system: HCT-116 colon
[13] = system: HCT-15 colon
[14] = system: HL-60(TB) leukemia
[15] = system: HOP-62 NSCLC
[16] = system: HOP-92 NSCLC
[17] = system: HS 578T breast
[18] = system: HT29 colon
[19] = system: IGROV1 ovarian
[20] = system: K-562 leukemia
[21] = system: KM12 colon
[22] = system: LOX IMVI melanoma
[23] = system: M14 melanoma
[24] = system: MALME-3M melanoma
[25] = system: MCF7 breast
[26] = system: MDA-MB-231 breast
[27] = system: MDA-MB-435
[28] = system: MOLT-4 leukemia
[29] = system: NCI-H226 lung
[30] = system: NCI-H23 lung
[31] = system: NCI-H460 lung
[32] = system: NCI-H522 lung
[33] = system: NCI/ADR-RES ovarian
[34] = system: OVCAR-3 ovarian
[35] = system: OVCAR-4 ovarian
[36] = system: OVCAR-5 ovarian
[37] = system: OVCAR-8 ovarian
[38] = system: PC-3 prostate
[39] = system: RPMI-8226 leukemia
[40] = system: RXF 393 renal
[41] = system: SF-268 CNS
[42] = system: SF-295 CNS
[43] = system: SF-539 CNS
[44] = system: SK-MEL-2 melanoma
[45] = system: SK-MEL-28 melanoma
[46] = system: SK-MEL-5 melanoma
[47] = system: SK-OV-3 ovarian
[48] = system: SN12C renal
[49] = system: SNB-19 CNS
[50] = system: SNB-75 CNS
[51] = system: SR leukemia
[52] = system: SW-620 colon
[53] = system: T-47D breast
[54] = system: TK-10 renal
[55] = system: U251 CNS
[56] = system: UACC-257 melanoma
[57] = system: UACC-62 melanoma
[58] = system: UO-31 renal

SMILES: Nc1ccc(N)c2c1C(=O)c1cccc([N+](=O)[O-])c1C2=O
- GI50 [1]: 2.72 µM
- TGI [1]: 32.1 µM
- GI50 [2]: 0.125 µM
- TGI [2]: 1.03 µM
- GI50 [3]: 1.47 µM
- GI50 [4]: 1.93 µM
- TGI [4]: > 100 µM
- GI50 [5]: 2.54 µM
- TGI [5]: > 31.2 µM
- GI50 [6]: 0.549 µM
- TGI [6]: 4.07 µM
- GI50 [7]: 7.95 µM
- TGI [7]: > 100 µM
- GI50 [8]: 4.17 µM
- TGI [8]: > 55.4 µM
- GI50 [9]: 0.662 µM
- TGI [9]: 6.9 µM
- GI50 [10]: 7.72 µM
- TGI [10]: > 100 µM
- GI50 [11]: 0.373 µM
- TGI [11]: 1.49 µM
- GI50 [12]: 2.73 µM
- TGI [12]: > 48.2 µM
- GI50 [13]: 2.16 µM
- TGI [13]: > 100 µM
- GI50 [14]: 3.65 µM
- TGI [14]: > 41.1 µM
- GI50 [15]: 1.62 µM
- TGI [15]: 7.88 µM
- GI50 [16]: 16.3 µM
- TGI [16]: > 100 µM
- GI50 [17]: 2.47 µM
- TGI [17]: 26.2 µM
- GI50 [18]: 5.6 µM
- TGI [18]: > 100 µM
- GI50 [19]: 3.92 µM
- TGI [19]: > 100 µM
- GI50 [20]: 5.45 µM
- TGI [20]: > 100 µM
- GI50 [21]: 4.15 µM
- TGI [21]: > 100 µM
- GI50 [22]: 1.84 µM
- TGI [22]: > 100 µM
- GI50 [23]: 3.37 µM
- TGI [23]: > 100 µM
- GI50 [24]: 5.69 µM
- TGI [24]: > 100 µM
- GI50 [25]: 0.32 µM
- TGI [25]: 18 µM
- GI50 [26]: 27 µM
- TGI [26]: > 100 µM
- GI50 [27]: 6.3 µM
- TGI [27]: > 100 µM
- GI50 [28]: 8.33 µM
- TGI [28]: > 91.4 µM
- GI50 [29]: 0.312 µM
- GI50 [30]: 0.44 µM
- TGI [30]: 2.73 µM
- GI50 [31]: 0.206 µM
- TGI [31]: 1.27 µM
- GI50 [32]: 1.46 µM
- TGI [32]: 17.9 µM
- GI50 [33]: 4.52 µM
- TGI [33]: > 100 µM
- GI50 [34]: 5.19 µM
- TGI [34]: > 100 µM
- GI50 [35]: 11.9 µM
- TGI [35]: > 100 µM
- GI50 [36]: 8.19 µM
- TGI [36]: > 100 µM
- GI50 [37]: 2.67 µM
- TGI [37]: 19.7 µM
- GI50 [38]: 15.6 µM
- TGI [38]: > 100 µM
- GI50 [39]: 2.82 µM
- TGI [39]: > 100 µM
- GI50 [40]: 7.16 µM
- TGI [40]: 54.9 µM
- GI50 [41]: 5.07 µM
- TGI [41]: > 89.4 µM
- GI50 [42]: 0.776 µM
- TGI [42]: > 100 µM
- GI50 [43]: 1.92 µM
- TGI [43]: > 22.4 µM
- GI50 [44]: 7.74 µM
- TGI [44]: > 100 µM
- GI50 [45]: 11.5 µM
- TGI [45]: > 100 µM
- GI50 [46]: 1.43 µM
- TGI [46]: 3.76 µM
- GI50 [47]: 3.43 µM
- TGI [47]: > 100 µM
- GI50 [48]: 2.48 µM
- TGI [48]: > 100 µM
- GI50 [49]: 2.4 µM
- TGI [49]: > 30.4 µM
- GI50 [50]: 2.13 µM
- TGI [50]: 24.5 µM
- GI50 [51]: 0.529 µM
- TGI [51]: > 20.6 µM
- GI50 [52]: 2.41 µM
- TGI [52]: > 100 µM
- GI50 [53]: 6.99 µM
- TGI [53]: > 100 µM
- GI50 [54]: 3.21 µM
- TGI [54]: > 71.8 µM
- GI50 [55]: 2.85 µM
- TGI [55]: > 100 µM
- GI50 [56]: 0.784 µM
- GI50 [57]: 1.2 µM
- TGI [57]: 5.65 µM
- GI50 [58]: 2.68 µM
- TGI [58]: > 22.6 µM

SMILES: C/C(=N\NC(=O)c1ccncc1)c1ccccc1O
- GI50 [1]: 2.94 µM
- TGI [1]: 21.3 µM
- GI50 [2]: 29 µM
- TGI [2]: > 100 µM
- GI50 [3]: 3.86 µM
- TGI [3]: > 100 µM
- GI50 [4]: 1.64 µM
- TGI [4]: > 100 µM
- GI50 [5]: 3.79 µM
- TGI [5]: 84.7 µM
- GI50 [6]: 0.805 µM
- TGI [6]: 21.4 µM
- GI50 [7]: 0.742 µM
- TGI [7]: > 100 µM
- GI50 [8]: 2.62 µM
- TGI [8]: > 100 µM
- GI50 [9]: 4.85 µM
- TGI [9]: > 100 µM
- GI50 [10]: 2.34 µM
- TGI [10]: > 100 µM
- GI50 [11]: 2.37 µM
- TGI [11]: 68.7 µM
- GI50 [12]: 2.32 µM
- TGI [12]: > 100 µM
- GI50 [13]: 0.828 µM
- TGI [13]: > 100 µM
- GI50 [14]: 2.96 µM
- TGI [14]: 11.6 µM
- GI50 [15]: 3.82 µM
- TGI [15]: > 100 µM
- GI50 [16]: 2.27 µM
- TGI [16]: > 100 µM
- GI50 [17]: 26.7 µM
- TGI [17]: > 100 µM
- GI50 [18]: 1.6 µM
- TGI [18]: > 100 µM
- GI50 [19]: 1.8 µM
- TGI [19]: > 100 µM
- GI50 [20]: 5.78 µM
- TGI [20]: > 100 µM
- GI50 [21]: 2.95 µM
- TGI [21]: > 100 µM
- GI50 [22]: 1.46 µM
- TGI [22]: > 100 µM
- GI50 [23]: 4.95 µM
- TGI [23]: 89.1 µM
- GI50 [24]: 5.39 µM
- TGI [24]: 97.3 µM
- GI50 [25]: 3.72 µM
- TGI [25]: > 100 µM
- GI50 [26]: 5.65 µM
- TGI [26]: > 100 µM
- GI50 [27]: 6.37 µM
- TGI [27]: > 100 µM
- GI50 [28]: 2.35 µM
- TGI [28]: > 100 µM
- GI50 [29]: 6.27 µM
- TGI [29]: > 100 µM
- GI50 [30]: 4.34 µM
- TGI [30]: > 100 µM
- GI50 [31]: 0.683 µM
- TGI [31]: > 100 µM
- GI50 [32]: 2.82 µM
- TGI [32]: > 100 µM
- GI50 [33]: 2.23 µM
- TGI [33]: > 100 µM
- GI50 [34]: 3.35 µM
- TGI [34]: > 100 µM
- GI50 [35]: 1.94 µM
- TGI [35]: > 100 µM
- GI50 [36]: 4.87 µM
- TGI [36]: > 100 µM
- GI50 [37]: 3.05 µM
- TGI [37]: > 100 µM
- GI50 [38]: 8.66 µM
- TGI [38]: > 100 µM
- GI50 [39]: 4.68 µM
- TGI [39]: > 100 µM
- GI50 [40]: 8.15 µM
- TGI [40]: > 100 µM
- GI50 [41]: 3.77 µM
- TGI [41]: > 100 µM
- GI50 [42]: 1.38 µM
- TGI [42]: > 100 µM
- GI50 [43]: 2.78 µM
- TGI [43]: > 100 µM
- GI50 [44]: > 100 µM
- TGI [44]: > 100 µM
- GI50 [45]: 20.9 µM
- TGI [45]: > 100 µM
- GI50 [46]: 3.6 µM
- TGI [46]: 32.2 µM
- GI50 [47]: 4.84 µM
- TGI [47]: > 100 µM
- GI50 [48]: 4.79 µM
- TGI [48]: > 100 µM
- GI50 [49]: 8.23 µM
- TGI [49]: > 100 µM
- GI50 [50]: > 100 µM
- TGI [50]: > 100 µM
- GI50 [51]: 1.8 µM
- TGI [51]: > 100 µM
- GI50 [52]: 5.27 µM
- TGI [52]: > 100 µM
- GI50 [53]: 2.24 µM
- TGI [53]: > 100 µM
- GI50 [54]: 3.03 µM
- TGI [54]: > 100 µM
- GI50 [55]: 3.31 µM
- TGI [55]: > 100 µM
- GI50 [56]: 4.14 µM
- TGI [56]: > 100 µM
- GI50 [57]: 3.04 µM
- TGI [57]: 18.9 µM
- GI50 [58]: 0.973 µM
- TGI [58]: 28.9 µM
